Measurements taken from US20200368315A1, “ANTIMICROBIAL PEPTIDES AND ADMIXTURES THEREOF SHOWING ANTIMICROBIAL ACTIVITY AGAINST GRAM-NEGATIVE PATHOGENS” (priority 2017, published 2020).
Read-outs that look alike come from different tables or passages of the source. No end group written: not given here.

Tests used:
[1] = gene nisA (nisin A mutants); cited from earlier work
[2] = system: P. aeruginosa LMG 6395; experiment: microbe, parasite or virus in culture; format: cell-based, Pseudomonas aeruginosa; details: LMG 6395
Procedure: (§1) Escherichia coli, Klebsiella pneumoniae, Pseudomonas aeruginosa, Acinetobacter baumannii, Enterobacter aerogenes were grown in Luria-Bertani (LB) broth shaken (200 rpm) or on LB agar at 37° C. […] MICs tests were performed in duplicate by a liquid growth inhibition microdilution assays in sterilized polypropylene microtiter plates according to Wiegand and […] [27]. […] The suspension was diluted in a ratio of 1:100 using Mueller Hinton Broth (MHB) and the final inoculum is 5*10^5 CFU/mL. […] The antimicrobials were diluted serially by 1/2 one by one and 50 uL diluted bacterial suspension were added to each well to make the final volume to be 100 uL. Growth control was accomplished by remove 10 uL from well 11 and dilute 1000 times to plate 1/10 suspension on the solid medium. […] The number of colonies on the control agar plate should be around 50 to ensure the concentration of the inoculum and the effectiveness of the experiment. The lowest concentration of the antimicrobials that inhibits visible growth of the indicator is identified as MIC.

[3] = system: K. pneumoniae LMG20218; experiment: microbe, parasite or virus in culture; format: cell-based, Klebsiella pneumoniae; details: LMG20218
Procedure: as §1

[4] = system: A. baumannii LMG01041; experiment: microbe, parasite or virus in culture; format: cell-based, Acinetobacter baumannii; details: LMG01041
Procedure: as §1

[5] = system: E. coli LMG15862; experiment: microbe, parasite or virus in culture; format: cell-based, Escherichia coli; details: L-form GNP; E. coli LMG15862; Table 6
Procedure: as §1

[6] = system: E. aerogenes LMG 02094; experiment: microbe, parasite or virus in culture; format: cell-based, Enterobacter aerogenes; details: LMG 02094
Procedure: as §1

[7] = system: K. pneumoniae LMG20218; format: cell-based, Klebsiella pneumoniae; details: for MICb: MIC of GNP alone; for MICbc: MIC of GNP when used with the MICac concentration of nisin; for MICac: MIC of nisin in combination with the GNP at the MICbc concentration
Source text: (§2) The test of synergistic effect was processed by conducting standard chequerboard broth microdilution assays. Nisin (Drug X) was loaded two fold serially diluted from row 1 to 10 in X-axis while GNPs (Drug Y) were loaded in eight two fold serially diluted concentrations from line A to H in Y-axis (FIG. 1). The original concentrations of peptides were MICs of each. Row 11 are used as growth control with no peptide was included, while row 12 with MHB medium-only wells was included as a sterility control as referred before. 50 uL fresh bacterial suspension was added to well 1-11 and final volume of each well on the plate is 100 uL.
(§3) To determine whether the combination therapy is additive, synergistic or antagonistic, fractional inhibitory concentration (FIC) indices were calculated. FICI=FICa+FICb=MICac/MICa+MICbc/MICb. The MICa/MICb is the MIC of compound A/B alone. MICac is the MIC of compound A in combination with compound B and MICbc is the MIC of compound B when it was combination with compound A. […]. FICa is FIC of compound A while FICb is FIC of compound B. The FICI is interpreted as follows: synergistic, FICI≤0.5; additive, 0.5<FICI<1; indifferent, 1<FICI<2; antagonistic, FICI>2.

[8] = system: P. aeruginosa LMG 6395; format: cell-based, Pseudomonas aeruginosa; details: for MICb: MIC of GNP alone; for MICbc: MIC of GNP when used with the MICac concentration of nisin; for MICac: MIC of nisin in combination with the GNP at the MICbc concentration
Source text: as §2, §3

[9] = system: E. coli LMG15862; format: cell-based, Escherichia coli; details: for MICb: MIC of GNP alone; for MICbc: MIC of GNP when used with the MICac concentration of nisin; for MICac: MIC of nisin in combination with the GNP at the MICbc concentration
Source text: as §2, §3

[10] = system: A. baumannii LMG01041; format: cell-based, Acinetobacter baumannii; details: for MICb: MIC of GNP alone; for MICbc: MIC of GNP when used with the MICac concentration of nisin; for MICac: MIC of nisin in combination with the GNP at the MICbc concentration
Source text: as §2, §3

[11] = system: E. aerogenes LMG 02094; format: cell-based, Enterobacter aerogenes; details: for MICb: MIC of GNP alone
Source text: as §2, §3

[12] = system: E. aerogenes LMG 02094; details: for MICb: MIC of GNP alone
Procedure: (§4) The test of synergistic effect was processed by conducting standard chequerboard broth microdilution assays. […] Row 11 are used as growth control with no peptide was included, while row 12 with MHB medium-only wells was included as a sterility control as referred before. 50 uL fresh bacterial suspension was added to well 1-11 and final volume of each well on the plate is 100 uL.
(§5) The test of synergistic effect was processed as method 1.4.
as §3

[13] = system: P. aeruginosa LMG 6395; details: for MICb: MIC of GNP alone; for MICbc: MIC of GNP in combination with vancomycin at the MICac concentration; for MICac: MIC of vancomycin in combination with the GNP at the MICbc concentration
Procedure: as §4, §5, §3

[14] = system: E. coli LMG15862; details: for MICb: MIC of GNP alone; for MICbc: MIC of GNP in combination with vancomycin at the MICac concentration; for MICac: MIC of vancomycin in combination with the GNP at the MICbc concentration
Procedure: as §4, §5, §3

[15] = system: K. pneumoniae LMG20218; details: for MICb: MIC of GNP alone; for MICbc: MIC of GNP in combination with vancomycin at the MICac concentration; for MICac: MIC of vancomycin in combination with the GNP at the MICbc concentration
Procedure: as §4, §5, §3

[16] = system: A. baumannii LMG01041; details: for MICb: MIC of GNP alone; for MICbc: MIC of GNP in combination with vancomycin at the MICac concentration; for MICac: MIC of vancomycin in combination with the GNP at the MICbc concentration
Procedure: as §4, §5, §3

Substance | Biological activity (relative to the wild type) [1] | MICb [7] [µM] | MICb [8] [µM] | MICbc [8] [µM] | MICac [8] [µM] | MICb [9] [µM] | MICbc [9] [µM] | MICac [9] [µM] | MICb [10] [µM] | MICb [11] [µM] | MICb [12] [µM] | MICb [13] [µM] | MICbc [13] [µM] | MICac [13] [µM] | MICb [14] [µM] | MICbc [14] [µM] | MICac [14] [µM] | MICb [15] [µM] | MICb [16] [µM] | MICbc [7] [µM] | other results
K12T (ITSISLCTPGCTTGALMGCNMKTATCHCSIHVSK; cysteine pairing not given here; also: lantibiotic nisin-A; UniProt P13068 24-57, looked up, variant K12T) | Increased (Increased activity, >120% compared to the activity of wild type nisin A/Z) |  |  |  |  |  |  |  |  |  |  |  |  |  |  |  |  |  |  |  | 
KRIVQRIKKWLR-NH2 [GNP-9] |  |  |  |  |  |  |  |  |  |  |  |  |  |  |  |  |  |  |  |  | MICb (MIC of GNP alone) [2]: 16 µM; MICb (MIC of GNP alone) [3]: 64 µM; MICb (MIC of GNP alone) [4]: 16 µM; MICb (GNP concentration when used alone) [5]: 4 µM; MICb (MIC of GNP alone) [6]: >32 µM
RIKRRIKKWLR-NH2 [GNP8-5] |  | >256 | 32 | 8 | 9 | 24 | 3 | 3 | >256 | >256 | >256 | 32 | 8 | 16 | 24 | 3 | 4 | >256 | >256 |  | 
RIVQRIKKWL-NH2 [GNP8-1] |  | 64 | 16 | 4 | 4.5 | 32 | 4 | 1.5 | 128 | >256 | >256 | 16 | 2 | 16 | 32 | 4 | 8 | 64 | 128 | 1 | MICac [7]: 3 µM; MICbc [10]: 16 µM; MICac [10]: 0.375 µM; MICbc [15]: 8 µM; MICac [15]: 16 µM; MICbc [16]: 16 µM; MICac [16]: 1 µM
AIVQRIKKWLR-NH2 [GNP8-3] |  | 24 | 16 | 8 | 4.5 | 12 | 1.5 | 1.5 | 128 | 128 | 128 | 16 | 8 | 4 | 12 | 3 | 4 | 24 | 128 | 3 | MICac [7]: 1.5 µM; MICbc [10]: 32 µM; MICac [10]: 0.375 µM; MICbc ([11]; MIC of GNP when used with the MICac concentration of nisin): 8 µM; MICac ([11]; MIC of nisin in combination with the GNP at the MICbc concentration): 4 µM; MICbc ([12]; MIC of GNP in combination with vancomycin at the MICac concentration): 16 µM; MICac ([12]; MIC of vancomycin in combination with the GNP at the MICbc concentration): 12 µM; MICbc [15]: 3 µM; MICac [15]: 16 µM; MICbc [16]: 8 µM; MICac [16]: 4 µM
K12S (ITSISLCTPGCSTGALMGCNMKTATCHCSIHVSK; cysteine pairing not given here; also: lantibiotic nisin-A; UniProt P13068 24-57, looked up, variant K12S) | Increased (Increased activity, >120% compared to the activity of wild type nisin A/Z) |  |  |  |  |  |  |  |  |  |  |  |  |  |  |  |  |  |  |  | 
